The source of these data is a melting point compilation (Tetko et al.).

What is called melting point is the temperature, or range, at which the solid turns liquid. On to `CCNc1ccc(C(=O)O)cc1[N+](=O)[O-]`, for which the melting point lay within 239 to 241 °C. With `COc1ccc(CC#N)cc1[N+](=O)[O-]` the figure was 84 to 86 °C.

For `Cc1ccc(C)n1CC(=O)O`, the melting point was 99 to 101 °C. With `N#CCS(=O)(=O)c1cc(Cl)ccc1Cl` the figure was 114 to 116 °C; with `O=C(O)c1cc([N+](=O)[O-])cc(S(=O)(=O)Cl)c1`, 162 to 164 °C. For the compound `CCOc1cc2c(cc1CBr)OC(C)C2` (stereo not given), the melting point lay within 69 to 71 °C. Next, `Cc1ccc(C)c(C(=O)c2cccc(S(C)(=O)=O)c2)c1`: 89 to 91 °C.

`Nc1ccc2c(cnn2C(F)F)c1` came in with a melting point of 77 to 79 °C. Take `Cc1ccc(S(N)(=O)=O)c(F)c1`: the melting point fell in the range of 138 to 140 °C.

Turning to `C#CCOc1ccccc1C#N`, the melting point lay in the range of 77 to 79 °C. Compound `N#CCc1c(C#N)c(N)nc(N2CCCCC2)c1C#N` displayed a melting point of 142 to 144 °C. Consider `Cc1ccc(C(O)CN)cc1` (stereo not given), for which the melting point was in the range of 70 to 72 °C. As for `Nc1nc(CN2CCN(c3nccs3)CC2)cs1`, the melting point was in the range of 169 to 171 °C.

For `CC(C)(C)c1nn(-c2ccccc2)cc1C=O`, the melting point was 57 to 59 °C. `C/C(=N\O)c1sc(C(C)(C)C)nc1C` showed a melting point of 117 to 119 °C. In turn, `NC1c2ccccc2-c2ccccc21` registered a melting point of 43 to 45 °C. Compound `CC(C)(C)OC(=O)NCCC(=O)NC(N)=O` returned a melting point of 162 to 164 °C.

Turning to `O=C(O)c1cc(-c2ccc(Cl)s2)on1`, the melting point was 169 to 171 °C. Consider `CC(C)NC(=O)Nc1ccccc1[N+](=O)[O-]`, for which the melting point is 169 to 171 °C. As for `O=C(O)C=Cc1ccc(Oc2cccnc2)c(F)c1`, the melting point was 202 to 204 °C. Compound `CN(CCCC(=O)O)C(=O)c1cc(S(N)(=O)=O)cn1C` registered a melting point of 173 to 175 °C. In the case of `NCCCc1c[nH]c2ccccc12`, the melting point was 62 to 64 °C. For `O=C(c1ccccc1)c1ccc(Cl)cc1O`, the melting point lay within 75 to 77 °C. As for `Cc1ccc(C(=O)O)cc1NC(=O)c1ccc(Br)cc1`, the melting point was 309 to 311 °C. `CC(Cl)C(=O)Nc1c(Cl)cccc1Cl` (stereo not given) showed a melting point of 144 to 146 °C. With `O=C(O)c1ccccc1-c1cncnc1` the figure was 228 to 230 °C; with `O=Cc1cn(-c2ccccc2)cn1`, 125 to 127 °C; with `CCOc1cc(C(=O)O)c(N)cc1OC`, 185 to 187 °C. On to `CC(C)CC1(C)CC(=O)NC1=O` (stereo not given), for which the melting point was 81 to 83 °C. In turn, `O=C(O)C1CC(=O)N(c2ccccc2Cl)C1` (stereo not given) gave a melting point of 141 to 143 °C. For `C1CNc2nn[nH]c2C1`, the melting point lay in the range of 163 to 165 °C. Next, `COc1ccc(Oc2ccc(Cl)cc2N)cc1`: 47 to 49 °C; `Nc1c(Cl)cnn1C1CCN(Cc2ccccc2)C1` (stereo not given): 106 to 108 °C.

Compound `COc1cc(-c2cc(C(=O)O)c3ccccc3n2)cc(OC)c1OC` displayed a melting point of 195 to 197 °C. With `Cc1cc(NC(=O)c2cccc(F)c2)sc1C(=O)O` the figure was 211 to 213 °C; with `N#Cc1ccc(F)c(Cl)c1Cl`, 65 to 67 °C; with `O=C(O)C=Cc1ccccc1OC(F)F`, 164 to 166 °C. Consider `CC(C)C(NC(N)=O)C(=O)O` (stereo not given), for which the melting point fell in the range of 203 to 207 °C.

With `O=C1C=CC(=O)N1c1cccc(C(F)(F)F)c1`, the melting point was in the range of 67 to 69 °C. `Cc1nc(Cl)cc(-c2cccnc2)n1`: the melting point lay in the range of 67 to 69 °C. As for `N#Cc1ccc2c(c1)CCCC2=O`, the melting point fell in the range of 132 to 134 °C. With `NC(=O)c1ccc(NC(=O)OCC(F)(F)F)cc1Cl` the figure was 178 to 180 °C; with `Cc1cc(C(=O)O)c(C)n1-c1ccc(F)cc1`, 232 to 234 °C; with `O=C1NCCc2c(Br)cccc21`, 109 to 111 °C. The compound `O=C(NO)C1CCCC1` gave a melting point of 107 to 109 °C. Consider `O=C(O)Cc1ccc(OC(F)F)cc1`, for which the melting point was 78 to 80 °C. Regarding `O=C1NC(=O)C2(CCCC2)N1`, the melting point was 140 to 142 °C. Next, `CCOC(=O)c1cc(Cl)cc(Br)c1N`: 57 to 59 °C; `COC(=O)c1cc(CBr)on1`: 59 to 61 °C.

`Cc1nc(-c2cccc(Cl)c2)sc1C(=O)O` displayed a melting point of 191 to 193 °C. Next, `CC1CCCN(C(N)=S)C1` (stereo not given): 103 to 105 °C; `CC(N)=C(C#N)C(=O)O`: 319 to 321 °C; `SCCCNc1ncccn1`: 45 to 47 °C.

Compound `Cc1nccn1-c1cc(C#N)ccn1` registered a melting point of 194 to 196 °C. Compound `O=C1NC(=O)C(c2ccc(Cl)cc2Cl)N1` (stereo not given) displayed a melting point of 179 to 181 °C. With `O=C(O)CCC(=O)c1ccc2c(c1)-c1ccccc1C2` the figure was 189 to 191 °C. With `CSc1ccc(C(C)=O)cc1F` the figure was 71 to 73 °C; with `COc1cc(S(N)(=O)=O)c(OC)cc1N`, 203 to 205 °C; with `Nc1ccc2c(c1)CC(=O)N2`, 190 to 192 °C.

Turning to `Cc1nc(-c2cc(C(=O)O)n(C)c2)cs1`, the melting point was in the range of 171 to 173 °C. `COc1cc(OC)cc(-c2cc(N)on2)c1` displayed a melting point of 116 to 118 °C. `COc1ccc(Oc2ccc(CO)cc2)cc1` came in with a melting point of 100 to 102 °C. With `COc1ccc(S(N)(=O)=O)c(C)c1C` the figure was 202 to 204 °C; with `NC(=O)c1ccc(NCC(=O)O)cc1`, 271 to 273 °C. `Cc1oc2[nH]c(=O)n(-c3ccccc3)c(=O)c2c1C(=O)O` displayed a melting point of 289 to 291 °C.

`Nc1cccc(-c2nnco2)c1`: the melting point fell in the range of 66 to 68 °C. Next, `Cc1cc2oc(=O)cc(CCl)c2cc1C(C)C`: 132 to 134 °C. In turn, `NS(=O)(=O)CCCC(=O)O` had a melting point of 108 to 111 °C.

The compound `Cc1cc(C)c(C(=O)O)c(Cl)n1` showed a melting point of 78 to 82 °C.

`N#Cc1cc(Oc2ccc(CC(=O)O)cc2)ccn1`: the melting point was in the range of 169 to 171 °C. As to `Cn1cc(C(=O)O)c(-c2ccccc2)n1`, the melting point was in the range of 204 to 206 °C. Turning to `CCOC(=O)C1SC(=N)NC1=O` (stereo not given), the melting point fell in the range of 175 to 177 °C.

`COC(=O)c1nc(Cl)ccc1S(=O)(=O)Cl` yielded a melting point of 143 to 145 °C. `CC(C)(C)OC(=O)NCC(C)(C)C(=O)O` gave a melting point of 116 to 118 °C. `CCn1c(=O)c(C)nc2cc(C(=O)O)ccc21`: the melting point lay in the range of 204 to 206 °C. In turn, `CCOC(=O)C(C)=NNc1ccc(Br)cc1CC` came in with a melting point of 68 to 70 °C. Compound `O=C(Nc1ccccn1)c1cc2ccccc2cc1O` had a melting point of 236 to 238 °C. In the case of `COc1ccc(CC2CC(=O)N2)cc1` (stereo not given), the melting point lay in the range of 97 to 99 °C. Consider `O=C(O)c1ccc(N2CCCCC2)c(S(=O)(=O)N2CCCCC2)c1`, for which the melting point fell in the range of 196 to 198 °C.

Regarding `CCc1cc(C#N)c(N)s1`, the melting point fell in the range of 61 to 63 °C. The compound `CC(NC(N)=O)C12CC3CC(CC(C3)C1)C2` (stereo not given) returned a melting point of 159 to 161 °C.

Turning to `CCn1c(=O)[nH]c(=O)c2cc(C(=O)O)cnc21`, the melting point is 316 to 318 °C.

As for `Nc1nc2ncccc2[nH]1`, the melting point lay in the range of 268 to 270 °C.

`O=C(O)c1ccccc1SC(F)(F)F` had a melting point of 120 to 122 °C. For `CS(=O)(=O)c1cccc(C(=O)Cl)c1`, the melting point lay within 85 to 87 °C. For `N#Cc1cnn(-c2ccccc2)c1N`, the melting point lay within 137 to 139 °C.

Regarding `Cc1c(Br)cc(C(=O)O)cc1[N+](=O)[O-]`, the melting point lay in the range of 183 to 185 °C.

The compound `O=S(=O)(Cl)c1ccc(S(=O)(=O)N2CCCCC2)cc1` showed a melting point of 151 to 153 °C.

In turn, `COc1ccc(C(=O)CCCC(=O)O)cc1` displayed a melting point of 138 to 140 °C. With `COc1ccccc1C(C)NC(=O)C(C)Cl` (stereo not given) the figure was 109 to 111 °C; with `O=C(O)c1ccc2nnn(O)c2c1`, 229 to 231 °C; with `C#CCNC(=O)Nc1ccccc1Cl`, 173 to 175 °C. The compound `CC(Cc1ccc(Cl)cc1)C(=O)O` (stereo not given) returned a melting point of 49 to 51 °C. On to `COC(=O)c1ccc2ccccc2c1O`, for which the melting point lay within 75 to 77 °C. `Nc1cc(C(=O)O)nc2ccccc12` showed a melting point of 276 to 278 °C. As to `NNc1ncccn1`, the melting point was in the range of 90 to 92 °C. In the case of `CC(Cl)C(=O)Nc1ccccc1C(=O)NCc1ccco1` (stereo not given), the melting point was in the range of 102 to 104 °C.

In turn, `CC(C)(C)OC(=O)N1CCN(CCN)CC1` came in with a melting point of 34 to 36 °C. `O=C(O)c1cnc2c(c1)c(C1CC1)nn2-c1ccccc1` gave a melting point of 250 to 252 °C.

`CC(C)(C(=O)O)n1cc([N+](=O)[O-])cn1`: the melting point was in the range of 121 to 123 °C. Compound `CC1CCCC(C)N1S(=O)(=O)c1ccsc1C(=O)O` (stereo not given) returned a melting point of 150 to 152 °C.

With `CN1Cc2ccc(N)cc2C1`, the melting point fell in the range of 61 to 63 °C.

`Cc1nn(-c2ccccc2)cc1C=O` gave a melting point of 58 to 60 °C. With `ClCc1ncc(-c2ccc(Br)cc2)o1`, the melting point lay in the range of 80 to 82 °C. With `Nc1nc(-c2ccccc2)c(-c2ccccc2)s1` the figure was 181 to 183 °C; with `CN(C)C1CCN(c2ccc(N)cc2F)CC1`, 124 to 126 °C.

In turn, `COc1cc(C2(C(=O)O)CCCC2)ccc1C` had a melting point of 163 to 165 °C. `C=CC(=O)Nc1cc(Cl)c(OC)cc1OC` displayed a melting point of 142 to 144 °C. In turn, `CCN1CCN(S(=O)(=O)c2ccc(Cl)c(C(=O)O)c2)CC1` registered a melting point of 189 to 191 °C. For `COC(=O)c1cc2c(nc1N)CCC2`, the melting point is 132 to 134 °C. `Cc1cccc(NS(=O)(=O)c2cc(C(=O)O)c(Cl)cc2Cl)c1` returned a melting point of 172 to 174 °C.

Compound `COc1cc2nc(N3CCN(C(=O)C4COc5ccccc5O4)CC3)nc(N)c2cc1OC` (stereo not given) showed a melting point of 279 to 281 °C.

In the case of `Cc1ccc(C#N)c(N2CCCC2)n1`, the melting point lay in the range of 74 to 76 °C. With `NC(=S)c1cnn(-c2ccccc2)c1` the figure was 181 to 183 °C; with `CC(C)(C)OC(=O)N1CCC(C(=O)O)(n2cccn2)CC1`, 159 to 161 °C. `NS(=O)(=O)c1cccc(NC(=O)c2ccc(C(=O)O)s2)c1`: the melting point was in the range of 308 to 310 °C.

`Nc1ncc(-c2ccccc2)[nH]1` came in with a melting point of 139 to 141 °C.

On to `Cc1sc(=O)[nH]c1C(C)C`, for which the melting point is 129 to 131 °C. For the compound `CSc1ccc(C(=O)O)o1`, the melting point is 126 to 128 °C. `O=C(O)c1ccc(COc2ccccc2)s1`: the melting point fell in the range of 134 to 136 °C.
